Earlier results, collected in US20040248846A1, “Intranasal administration of triptans” (Nastech Pharmaceutical Company Inc., priority 2003, published 2004).
Read-outs that look alike come from different tables or passages of the source.

Tests used:
[1] = single 6 mg subcutaneous dose, 18 healthy males

CNS(=O)(=O)Cc1ccc2[nH]cc(CCN(C)C)c2c1 [sumatriptan]
efficacy (effective) (patients with migraine; 6 mg subcutaneous dose): ~85% | Onset of pain relief (patients with migraine; after a nasal dose): 30 min | Onset of pain relief (patients with migraine; after a subcutaneous dose): 10 to 34 min | mean Cmax (5 mg intranasal dose, 20 females): 5 ng/mL | mean Cmax (20 mg intranasal dose, 20 females): 16 ng/mL | mean Cmax (oral dosing with 25 mg): approximately 18 ng/ml | tmax (oral dosing with 25 mg): approximately 2 hours | mean Cmax [1]: 74 ± 15 ng/mL | median tmax [1]: 12 min
